Converted amounts (≈) assume the structure as drawn. Like-named read-outs stand apart in the source and are kept apart here.
Legend:
MRSA = assay: MIC, broth microdilution, clinical isolates: MRSA; type: cell-based, Staphylococcus aureus; conditions: Staphylococcus aureus, MRSA, 42 clinical isolates; for MIC50: read-out: MIC50; for MIC90: read-out: MIC90
Experimental: (§1) To assess the MICs for antibiotic susceptibility, Gram-positive bacteria isolated from human clinical specimens were obtained from several general hospitals in Seoul, Korea, during 2002–2018. Staphylococcus aureus Giorgio and Streptococcus pneumoniae ATCC49619 were used to test in vivo efficacies against […], in mice.
(§2) The MICs of the antimicrobial agents were determined by a twofold microdilution broth method, as described by the Clinical and Laboratory Standards Institute. Briefly, test organisms were grown on Mueller–Hinton agar (MHA, BD Difco, Sparks, MD, USA) plates, subcultured into cation-adjusted Mueller–Hinton broth (CAMHB, BD Difco, Sparks, MD, USA), and incubated for 18 h at 35 °C. For S. pneumoniae culture, 5% sheep blood (Hanil Comed, Seongnam, Korea) was added. The cultured bacteria were diluted using phosphate-buffered saline (PBS) to achieve a bacterial cell density of approximately 5 × 10^6 CFU/mL. All test organisms were loaded into 96-well plates containing serial dilutions of the antimicrobial agents to achieve a concentration of 5 × 10^4 CFU/well. The plates were incubated at 35 °C for 18–20 h and examined for bacterial growth.

MSSA = assay: MIC, broth microdilution, clinical isolates: MSSA; type: cell-based; conditions: Staphylococcus aureus; for MIC90: read-out: MIC90
Experimental: as §1, §2

[1] = highly protein-bound antibacterial agents in clinical use; cited from earlier work
[2] = system: Vancomycin-sensitive E. faecium; assay: MIC, broth microdilution, clinical isolates: vancomycin-sensitive E. faecium; type: cell-based, Enterococcus faecium; conditions: Enterococcus faecium, 32 clinical isolates; for MIC50: read-out: MIC50; for MIC90: read-out: MIC90
Experimental: as §1, §2

S. pneumoniae = assay: MIC, broth microdilution, clinical isolates: S. pneumoniae; type: cell-based, Streptococcus pneumoniae; conditions: for MIC50: read-out: MIC50
Experimental: as §1, §2

[3] = system: Vancomycin-sensitive E. faecalis; assay: MIC, broth microdilution, clinical isolates: vancomycin-sensitive E. faecalis; type: cell-based, Enterococcus faecalis; conditions: Enterococcus faecalis, 32 clinical isolates; for MIC50: read-out: MIC50; for MIC90: read-out: MIC90
Experimental: as §1, §2

VRE = assay: MIC, broth microdilution, clinical isolates: VRE; type: cell-based, vancomycin-resistant Enterococcus; conditions: for MIC50: read-out: MIC50
Experimental: as §1, §2

S. pneumoniae ATCC49619 = assay: Time-kill assay, S. pneumoniae ATCC49619; type: cell-based, Streptococcus pneumoniae; conditions: 2× and 4× MIC, 24 h
Experimental: (§3) Time-kill analysis was performed by the NCCLS M26-A method. The test organisms (S. aureus Giorgio, S. pneumoniae ATCC49619, MRSA CCARM 3167, and VRE 3) incubated in CAMHB for 18 h at 35 °C were diluted to 10^5 CFU/mL with fresh CAMHB, and the diluted cultures were preincubated for 2 h. For S. pneumoniae culture, 5% sheep blood (Hanil Comed, Seongnam, Korea) was added. […] Culture aliquots (0.1 mL) were removed after 0, 2, 4, 6 and 24 h of incubation, and serial 10-fold dilutions were prepared in saline as needed. The numbers of viable cells were determined on drug-free MHA plates after 20 h of incubation. A compound was considered bactericidal if the original inoculum was reduced by 3 log CFU/mL (99.9%) at each concentration or was considered bacteriostatic if the inoculum was reduced by 0–3 log CFU/mL.

MRSA CCARM 3167 = assay: Time-kill assay, MRSA CCARM 3167; type: cell-based, Staphylococcus aureus; conditions: 2× and 4× MIC, 24 h
Experimental: as §3

S. aureus Giorgio = assay: Time-kill assay, S. aureus Giorgio; type: cell-based, Staphylococcus aureus; conditions: 2× and 4× MIC, 24 h
Experimental: as §3

VRE 3 = assay: Time-kill assay, VRE 3; type: cell-based, vancomycin-resistant Enterococcus; conditions: 2× and 4× MIC, 24 h
Experimental: as §3

[4] = system: CNS (coagulase-negative staphylococci); assay: MIC, broth microdilution, clinical isolates: CNS; type: cell-based; conditions: 31 clinical isolates; for MIC50: read-out: MIC50; for MIC90: read-out: MIC90
Experimental: as §1, §2

[5] = 26 clinical isolates, read-out: MIC50
[6] = Streptococcus pneumoniae, 27 S. pneumoniae isolates, read-out: MIC90
[7] = Streptococcus pneumoniae, 27 clinical isolates
[8] = Enterococcus, VRE, 46 clinical isolates
[9] = Enterococcus, VRE, 46 clinical isolates, read-out: MIC90

MIC50 (MRSA) | MIC90 (MRSA) | MIC50 (MSSA; [5]) | MIC90 (MSSA; 26 clinical isolates) | MIC50 [2] | MIC90 [2] | MIC90 (S. pneumoniae; 27 clinical isolates) | MIC90 (S. pneumoniae; [6]) | MIC50 (S. pneumoniae; [7]) | MIC50 [3] | MIC90 [3] | MIC50 (VRE; [8]) | MIC90 (VRE; [9]) | MIC50 [4] | MIC90 [4] | Compound | also measured
 |  | 4 µg/mL (≈ 9.36 µM) | 4 µg/mL (≈ 9.36 µM) | > 32 µg/mL | > 32 µg/mL | >32 µg/mL | > 32 µg/mL | > 32 µg/mL | > 32 µg/mL | > 32 µg/mL | > 32 µg/mL | > 32 µg/mL |  |  | CO[C@@]1(NC(=O)Cc2cccs2)C(=O)N2C(C(=O)O)=C(COC(N)=O)CS[C@@H]21 [Cefoxitin] | 
> 32 µg/mL | > 32 µg/mL | 8 µg/mL (≈ 14.6 µM) | 16 µg/mL (≈ 29.3 µM) | > 32 µg/mL | > 32 µg/mL | >32 µg/mL | > 32 µg/mL | > 32 µg/mL | > 32 µg/mL | > 32 µg/mL | > 32 µg/mL | > 32 µg/mL | 32 µg/mL (≈ 58.5 µM) | > 32 µg/mL | CC(C)(O/N=C(\C(=O)N[C@@H]1C(=O)N2C(C(=O)[O-])=C(C[n+]3ccccc3)CS[C@H]12)c1csc(N)n1)C(=O)O [Ceftazidime] | 
32 µg/mL (≈ 67 µM) | > 32 µg/mL | 1 µg/mL (≈ 2.09 µM) | > 32 µg/mL | > 32 µg/mL | > 32 µg/mL |  |  | 32 µg/mL (≈ 67 µM) | > 32 µg/mL | > 32 µg/mL | > 32 µg/mL | > 32 µg/mL | > 32 µg/mL | > 32 µg/mL | CNC(C)C1CCC(N)C(OC2C(N)CC(N)C(OC3OCC(C)(O)C(NC)C3O)C2O)O1 (centres unmarked) [Gentamicin] | MIC90 (S. pneumoniae; Streptococcus pneumoniae, 27 clinical isolates, read-out: MIC90): > 32 µg/mL
2 µg/mL (≈ 1.23 µM) | 4 µg/mL (≈ 2.47 µM) | 2 µg/mL (≈ 1.23 µM) | 4 µg/mL (≈ 2.47 µM) | 4 µg/mL (≈ 2.47 µM) | 8 µg/mL (≈ 4.94 µM) | 8 µg/mL (≈ 4.94 µM) | 8 µg/mL (≈ 4.94 µM) | 2 µg/mL (≈ 1.23 µM) | 4 µg/mL (≈ 2.47 µM) | 8 µg/mL (≈ 4.94 µM) | 4 µg/mL (≈ 2.47 µM) |  | 2 µg/mL (≈ 1.23 µM) | 4 µg/mL (≈ 2.47 µM) | CCCCCCCCCC(=O)N[C@@H](Cc1c[nH]c2ccccc12)C(=O)N[C@H](CC(N)=O)C(=O)N[C@@H](CC(=O)O)C(=O)N[C@@H]1C(=O)NCC(=O)N[C@@H](CCCN)C(=O)N[C@@H](CC(=O)O)C(=O)N[C@H](C)C(=O)N[C@@H](CC(=O)O)C(=O)NCC(=O)N[C@H](CO)C(=O)N[C@@H]([C@H](C)CC(=O)O)C(=O)N[C@@H](CC(=O)c2ccccc2N)C(=O)O[C@@H]1C [Daptomycin] | MIC90 (VRE; 46 clinical isolates): 8 µg/mL (≈ 4.94 µM); MIC90 (VRE; Enterococcus, 46 VRE isolates, read-out: MIC90): 8 µg/mL (≈ 4.94 µM)
16 µg/mL (≈ 44.3 µM) | > 32 µg/mL | 0.25 µg/mL (≈ 0.692 µM) | 0.5 µg/mL (≈ 1.38 µM) | 16 µg/mL (≈ 44.3 µM) | 32 µg/mL (≈ 88.6 µM) | 16 µg/mL (≈ 44.3 µM) | 16 µg/mL (≈ 44.3 µM) | 0.5 µg/mL (≈ 1.38 µM) | 2 µg/mL (≈ 5.53 µM) | 32 µg/mL (≈ 88.6 µM) | > 32 µg/mL | > 32 µg/mL | 8 µg/mL (≈ 22.1 µM) | > 32 µg/mL | C[C@H]1COc2c(N3CCN(C)CC3)c(F)cc3c(=O)c(C(=O)O)cn1c23 [Levofloxacin] | 

Second part, the compound before the results:

Compound | MIC50 (MRSA) | MIC90 (MRSA) | MIC50 (MSSA; [5]) | MIC90 (MSSA; 26 clinical isolates) | MIC50 [2] | MIC90 [2] | MIC90 (S. pneumoniae; 27 clinical isolates) | MIC90 (S. pneumoniae; [6]) | MIC50 (S. pneumoniae; [7]) | MIC50 [3] | MIC90 [3] | MIC50 (VRE; [8]) | MIC90 (VRE; [9]) | MIC50 [4] | MIC90 [4] | also measured
Cc1onc(-c2ccccc2)c1C(=O)N[C@@H]1C(=O)N2[C@@H]1SC(C)(C)[C@@H]2C(=O)O [Oxacillin] | > 32 µg/mL | > 32 µg/mL | 0.5 µg/mL (≈ 1.25 µM) | 1 µg/mL (≈ 2.49 µM) |  |  |  |  |  |  |  |  |  |  |  | 
teicoplanin |  |  |  |  |  |  |  |  |  |  |  |  |  |  |  | protein-bound [1]: > 90%
CO/N=C(\C(=O)N[C@@H]1C(=O)N2C(C(=O)O)=C(CSc3nc(=O)c(=O)[nH]n3C)CS[C@H]12)c1csc(N)n1 [ceftriaxone] |  |  |  |  |  |  |  |  |  |  |  |  |  |  |  | protein-bound [1]: > 90%
O=C(O)c1cn(C2CC2)c2cc(N3CCNCC3)c(F)cc2c1=O [ciprofloxacin] |  |  |  |  |  |  |  |  |  |  |  |  |  |  |  | time-kill activity (S. pneumoniae ATCC49619): bactericidal (considered bactericidal if the original inoculum was reduced by 3 log CFU/mL (99.9%) at each concentration); time-kill activity (MRSA CCARM 3167): bactericidal (considered bactericidal if the original inoculum was reduced by 3 log CFU/mL (99.9%) at each concentration); time-kill activity (S. aureus Giorgio): bactericidal (considered bactericidal if the original inoculum was reduced by 3 log CFU/mL (99.9%) at each concentration); time-kill activity (VRE 3): bactericidal (considered bactericidal if the original inoculum was reduced by 3 log CFU/mL (99.9%) at each concentration)
C[C@@H](O)[C@H]1C(=O)N2C(C(=O)O)=C(S[C@@H]3CN[C@H](C(=O)N(C)C)C3)[C@H](C)[C@H]12 [Meropenem] |  |  |  | 0.25 µg/mL (≈ 0.652 µM) | > 32 µg/mL | > 32 µg/mL | 4 µg/mL (≈ 10.4 µM) | 4 µg/mL (≈ 10.4 µM) | 0.5 µg/mL (≈ 1.3 µM) | 4 µg/mL (≈ 10.4 µM) | 16 µg/mL (≈ 41.7 µM) | > 32 µg/mL | > 32 µg/mL |  |  | MIC50 (MSSA): 0.125 µg/mL (≈ 0.326 µM)
